Experimental data taken from patent US20170087174A1, “COMBINATION THERAPY REGIMEN FOR TREATMENT OF HCV” (JANSSEN PHARMACEUTICALS, INC., priority 2015, published 2017).

Tests used:
BCRP = molecular target: T1, BCRP (Homo sapiens, UniProt Q9UNQ0); settings: in vitro; cited from earlier work
T1 sequence (Q9UNQ0 1-655): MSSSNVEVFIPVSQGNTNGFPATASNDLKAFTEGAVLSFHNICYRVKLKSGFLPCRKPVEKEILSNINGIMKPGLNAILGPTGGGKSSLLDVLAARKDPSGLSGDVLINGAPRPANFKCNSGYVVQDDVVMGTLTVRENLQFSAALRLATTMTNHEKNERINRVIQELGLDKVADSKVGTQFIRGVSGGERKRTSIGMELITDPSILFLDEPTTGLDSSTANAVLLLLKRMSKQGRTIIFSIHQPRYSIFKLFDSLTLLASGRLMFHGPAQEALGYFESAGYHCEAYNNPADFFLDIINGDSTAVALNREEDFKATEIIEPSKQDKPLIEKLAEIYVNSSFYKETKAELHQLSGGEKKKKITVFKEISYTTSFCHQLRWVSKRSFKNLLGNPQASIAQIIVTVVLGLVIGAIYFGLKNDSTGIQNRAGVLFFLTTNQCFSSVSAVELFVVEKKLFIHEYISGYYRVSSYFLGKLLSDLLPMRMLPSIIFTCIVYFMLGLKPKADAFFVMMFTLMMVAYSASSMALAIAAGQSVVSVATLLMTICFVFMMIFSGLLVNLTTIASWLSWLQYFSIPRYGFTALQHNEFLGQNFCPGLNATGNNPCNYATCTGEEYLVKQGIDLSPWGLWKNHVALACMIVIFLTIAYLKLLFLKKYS

CYP3A4/5 = CYP3A4/5 inhibition; type: in vitro ADME; settings: up to 10 μM
MRP2 = MRP2 (Homo sapiens, UniProt Q92887); settings: in vitro, cited from earlier work
CYP2C8 = molecular target: T2, CYP2C8 (Homo sapiens, UniProt P10632); assay: CYP2C8 inhibition; type: in vitro ADME; settings: up to 10 μM
T2 sequence (P10632 1-490): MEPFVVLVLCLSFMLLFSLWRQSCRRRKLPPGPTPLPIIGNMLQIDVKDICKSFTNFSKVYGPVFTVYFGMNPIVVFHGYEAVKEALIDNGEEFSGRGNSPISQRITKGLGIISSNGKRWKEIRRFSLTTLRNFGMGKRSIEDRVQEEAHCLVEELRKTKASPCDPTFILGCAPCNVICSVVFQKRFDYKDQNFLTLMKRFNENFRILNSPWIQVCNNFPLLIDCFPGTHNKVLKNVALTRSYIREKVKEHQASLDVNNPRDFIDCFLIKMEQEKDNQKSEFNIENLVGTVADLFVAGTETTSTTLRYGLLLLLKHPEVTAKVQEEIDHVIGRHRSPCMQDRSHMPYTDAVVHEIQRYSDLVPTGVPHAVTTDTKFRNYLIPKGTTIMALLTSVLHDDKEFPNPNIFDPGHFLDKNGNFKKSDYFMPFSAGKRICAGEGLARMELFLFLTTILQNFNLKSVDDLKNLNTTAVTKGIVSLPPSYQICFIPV

1A2 = molecular target: T3, 1A2 (Homo sapiens, UniProt P05177); assay: CYP1A2 inhibition; type: in vitro ADME; settings: up to 10 μM
T3 sequence (P05177 1-516): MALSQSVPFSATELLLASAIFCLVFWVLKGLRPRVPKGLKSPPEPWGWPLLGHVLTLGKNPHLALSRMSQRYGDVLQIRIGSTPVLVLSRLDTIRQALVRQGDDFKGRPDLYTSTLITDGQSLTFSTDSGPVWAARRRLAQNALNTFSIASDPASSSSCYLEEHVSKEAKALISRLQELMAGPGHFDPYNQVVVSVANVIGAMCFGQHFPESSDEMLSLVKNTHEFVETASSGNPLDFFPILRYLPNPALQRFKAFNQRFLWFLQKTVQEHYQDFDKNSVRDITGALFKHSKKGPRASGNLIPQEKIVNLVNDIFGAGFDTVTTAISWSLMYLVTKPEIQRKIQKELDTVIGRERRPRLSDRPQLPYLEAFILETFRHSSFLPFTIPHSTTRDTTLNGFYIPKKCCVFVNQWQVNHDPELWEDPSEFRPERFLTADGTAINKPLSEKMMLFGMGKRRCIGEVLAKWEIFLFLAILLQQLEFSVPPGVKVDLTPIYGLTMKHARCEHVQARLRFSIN

[1] = Phase 2a open-label combination study: pharmacokinetics (exposure); type: in vivo, human
Description: A randomized, Phase 2a, open-label study was carried out to evaluate the safety, pharmacokinetics and efficacy of the combination of Compound (III), Odalasvir and Simeprevir in Genotype 1 treatment-naïve subjects with chronic hepatitis C. Other treatment-naïve subjects included Genotype 2, 3, 4, 5 and 6.
The aim of the study was to determine the efficacy, pharmacokinetics (PK), and safety of Compound (III)+Odalasvir±SMV in HCV-infected subjects.
This was an open-label study evaluating various dosing regimens of Compound (III)+Odalasvir±SMV for 6-8 weeks in treatment-naïve HCV-infected subjects with varying clinical characteristics (e.g., GT 1 or 3, presence/absence of compensated Child Pugh A cirrhosis). Efficacy, PK and safety evaluations were conducted during and through 24 weeks post dosing. Up to 15 cohorts were enrolled; data was generated from cohorts that have completed dosing.

BSEP = BSEP (Homo sapiens, UniProt O95342); settings: in vitro, cited from earlier work
NTCP = molecular target: T4, NTCP (Homo sapiens, UniProt Q14973); settings: in vitro; read-out: other OATPs NTCP inhibition IC50; cited from earlier work
T4 sequence (Q14973 1-349): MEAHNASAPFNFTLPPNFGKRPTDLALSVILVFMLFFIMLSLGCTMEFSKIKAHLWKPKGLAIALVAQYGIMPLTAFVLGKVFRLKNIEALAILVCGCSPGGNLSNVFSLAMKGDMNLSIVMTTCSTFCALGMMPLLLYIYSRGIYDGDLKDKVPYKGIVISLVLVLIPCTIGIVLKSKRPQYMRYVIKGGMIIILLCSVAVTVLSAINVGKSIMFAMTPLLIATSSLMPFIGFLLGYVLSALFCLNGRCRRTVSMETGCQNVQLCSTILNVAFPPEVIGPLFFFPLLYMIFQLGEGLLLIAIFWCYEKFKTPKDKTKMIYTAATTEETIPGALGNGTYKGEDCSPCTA

CYP1A2 = CYP1A2 induction; type: in vitro ADME; settings: up to 10 μM
CYP3A4 = CYP3A4 induction; type: in vitro ADME; settings: up to 10 μM
[2] = tested on: Digoxin (a pgp-substrate); settings: SMV co-administered with Digoxin; cited from earlier work

Chain of MRP2 (Q92887 whole entry): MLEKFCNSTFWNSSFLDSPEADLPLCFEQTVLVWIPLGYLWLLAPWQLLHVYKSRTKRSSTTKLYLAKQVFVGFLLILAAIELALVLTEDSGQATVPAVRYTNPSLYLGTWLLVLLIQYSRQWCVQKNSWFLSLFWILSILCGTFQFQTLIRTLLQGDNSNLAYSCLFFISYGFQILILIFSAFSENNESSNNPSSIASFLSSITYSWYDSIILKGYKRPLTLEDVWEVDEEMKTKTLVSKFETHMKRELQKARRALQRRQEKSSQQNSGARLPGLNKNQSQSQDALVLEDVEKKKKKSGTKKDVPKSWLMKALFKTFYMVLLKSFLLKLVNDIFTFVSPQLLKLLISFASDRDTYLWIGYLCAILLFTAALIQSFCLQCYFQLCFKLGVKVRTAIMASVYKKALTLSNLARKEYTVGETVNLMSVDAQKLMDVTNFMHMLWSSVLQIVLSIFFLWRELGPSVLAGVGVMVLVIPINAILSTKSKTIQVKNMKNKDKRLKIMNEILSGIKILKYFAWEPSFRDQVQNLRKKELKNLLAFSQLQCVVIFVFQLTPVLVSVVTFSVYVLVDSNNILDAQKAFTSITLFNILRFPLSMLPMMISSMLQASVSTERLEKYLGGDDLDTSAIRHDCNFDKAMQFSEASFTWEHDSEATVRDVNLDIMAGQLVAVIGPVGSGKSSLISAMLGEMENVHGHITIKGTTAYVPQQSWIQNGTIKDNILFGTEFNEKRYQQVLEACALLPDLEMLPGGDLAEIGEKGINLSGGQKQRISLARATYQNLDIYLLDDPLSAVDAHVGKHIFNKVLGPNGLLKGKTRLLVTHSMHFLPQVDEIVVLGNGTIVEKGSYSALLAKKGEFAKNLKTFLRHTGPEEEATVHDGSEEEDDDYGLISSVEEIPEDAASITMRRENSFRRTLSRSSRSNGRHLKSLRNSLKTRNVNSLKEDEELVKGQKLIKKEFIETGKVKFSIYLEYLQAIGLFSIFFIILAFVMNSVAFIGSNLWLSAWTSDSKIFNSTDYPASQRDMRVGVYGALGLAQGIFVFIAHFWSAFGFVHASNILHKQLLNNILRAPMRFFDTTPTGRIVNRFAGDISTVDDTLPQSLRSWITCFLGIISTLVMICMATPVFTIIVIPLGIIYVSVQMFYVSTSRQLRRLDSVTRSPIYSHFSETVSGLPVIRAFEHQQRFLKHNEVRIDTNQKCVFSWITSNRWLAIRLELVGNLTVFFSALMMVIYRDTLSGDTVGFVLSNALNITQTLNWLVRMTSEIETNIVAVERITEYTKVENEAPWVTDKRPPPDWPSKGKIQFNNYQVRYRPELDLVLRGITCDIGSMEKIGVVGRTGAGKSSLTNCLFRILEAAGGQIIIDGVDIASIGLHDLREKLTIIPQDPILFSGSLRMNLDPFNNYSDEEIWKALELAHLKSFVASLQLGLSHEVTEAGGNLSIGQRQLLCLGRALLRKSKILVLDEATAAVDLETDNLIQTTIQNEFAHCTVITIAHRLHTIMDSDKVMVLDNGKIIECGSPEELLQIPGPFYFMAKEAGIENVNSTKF
Chain of BSEP (O95342 whole entry): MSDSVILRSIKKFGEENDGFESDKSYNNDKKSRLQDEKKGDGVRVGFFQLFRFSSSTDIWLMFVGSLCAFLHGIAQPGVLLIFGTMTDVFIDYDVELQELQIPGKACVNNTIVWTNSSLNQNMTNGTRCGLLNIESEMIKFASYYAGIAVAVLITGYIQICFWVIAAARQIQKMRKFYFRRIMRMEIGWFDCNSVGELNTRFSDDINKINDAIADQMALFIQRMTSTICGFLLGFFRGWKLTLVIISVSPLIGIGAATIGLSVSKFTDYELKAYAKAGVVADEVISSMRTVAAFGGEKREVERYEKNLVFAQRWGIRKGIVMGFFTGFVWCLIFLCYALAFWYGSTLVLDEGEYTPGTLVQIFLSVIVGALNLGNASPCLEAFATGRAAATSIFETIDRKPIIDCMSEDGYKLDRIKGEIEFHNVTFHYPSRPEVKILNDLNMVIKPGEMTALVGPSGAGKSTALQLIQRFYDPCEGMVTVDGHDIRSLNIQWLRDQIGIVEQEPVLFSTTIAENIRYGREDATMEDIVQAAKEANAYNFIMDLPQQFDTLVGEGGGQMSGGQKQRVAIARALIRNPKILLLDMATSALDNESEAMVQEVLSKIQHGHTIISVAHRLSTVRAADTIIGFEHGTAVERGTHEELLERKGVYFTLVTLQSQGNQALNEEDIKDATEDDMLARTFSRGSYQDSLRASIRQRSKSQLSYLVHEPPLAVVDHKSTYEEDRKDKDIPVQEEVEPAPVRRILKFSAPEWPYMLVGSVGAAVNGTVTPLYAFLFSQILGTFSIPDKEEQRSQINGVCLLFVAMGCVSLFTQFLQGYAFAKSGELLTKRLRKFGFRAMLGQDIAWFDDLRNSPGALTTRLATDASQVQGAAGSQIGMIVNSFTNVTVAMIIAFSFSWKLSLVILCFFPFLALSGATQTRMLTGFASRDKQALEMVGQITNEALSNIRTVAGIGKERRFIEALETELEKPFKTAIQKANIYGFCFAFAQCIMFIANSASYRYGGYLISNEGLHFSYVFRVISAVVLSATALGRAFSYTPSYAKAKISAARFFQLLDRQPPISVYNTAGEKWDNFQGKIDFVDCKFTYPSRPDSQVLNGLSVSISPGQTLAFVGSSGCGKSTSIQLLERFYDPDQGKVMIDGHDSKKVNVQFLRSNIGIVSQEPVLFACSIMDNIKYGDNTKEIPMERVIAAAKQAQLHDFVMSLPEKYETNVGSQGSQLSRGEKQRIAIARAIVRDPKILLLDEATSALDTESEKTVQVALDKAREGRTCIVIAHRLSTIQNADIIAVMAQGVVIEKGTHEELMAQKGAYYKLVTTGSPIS

Structure (SMILES)	BCRP inhibition (in words) (BCRP)	inhibition of CYP3A4/5 (CYP3A4/5)	MRP2 inhibition (in words) (MRP2)	effect on CYP2C8 (CYP2C8)	inhibition of 1A2 (1A2)	observed exposure versus anticipated ([1]; Cohort 1 / group (i))	decrease of exposure with dosing frequency ([1]; reducing ODV dosing from QD to QOD)	BSEP inhibition (in words) (BSEP)	IC50 (NTCP) [nM]	induction of CYP1A2 (CYP1A2)	IC50 (MRP2; read-out: MRP2 inhibition IC50) [nM]	decrease of exposure with dose ([1]; in vivo)	observed exposure versus anticipated ([1]; in vivo)	induction of CYP3A4 (CYP3A4)	increase in exposure of Digoxin [2] [%]	IC50 (BSEP; read-out: BSEP inhibition IC50) [nM]
COC(=O)N[C@H](C(=O)N1[C@H](c2nc3cc(-c4cc5ccc4CCc4ccc(c(-c6ccc7[nH]c([C@@H]8C[C@@H]9CCCC[C@@H]9N8C(=O)[C@@H](NC(=O)OC)C(C)C)nc7c6)c4)CC5)ccc3[nH]2)C[C@@H]2CCCC[C@@H]21)C(C)C [ODV, Odalasvir]	no inhibition	no inhibition	no inhibition	limited effect	no inhibition	higher than anticipated	proportionally	no inhibition	–	–	–	–	–	–	–	–
COc1ccc2c(O[C@@H]3C[C@H]4C(=O)N[C@]5(C(=O)NS(=O)(=O)C6CC6)C[C@H]5/C=C\CCCCN(C)C(=O)[C@@H]4C3)cc(-c3nc(C(C)C)cs3)nc2c1C [SMV, Simeprevir, reference compound]	–	–	strong/moderate	–	–	–	–	strong/moderate	2200	no induction	6000 to 19000	less than proportionally	higher than anticipated	no induction	35	1700
CC(C)OC(=O)[C@H](C)N[P@](=O)(OC[C@@]1(F)O[C@@H](n2ccc(=O)[nH]c2=O)[C@](C)(O)[C@@H]1O)Oc1ccccc1 [Compound (III), isopropyl ((S)-(((2S,3S,4R,5R)-5-(2,4-dioxo-3,4-dihydropyrimidin-1 (2H)-yl)-2-fluoro-3,4-dihydroxy-4-methyltetrahydrofuran-2-yl)methoxy)(phenoxy)phosphoryl)-L-alaninate]	no in vitro inhibition	–	–	–	–	–	–	–	–	–	–	–	–	–	–	–
